The text below walks through data of ChEMBL document CHEMBL1131691, “Design and synthesis of simplified sordaricin derivatives as inhibitors of fungal protein synthesis” (Bioorg Med Chem Lett, 1999).

Each structure is given as a SMILES string.

Test [1] has as its system Candida albicans. The test can be described thus: Minimum inhibitory concentration Candida albicans 2005E cell growth. It counts as functional.
Test [2] deals with Candida albicans. The test can be described thus: Inhibitory concentration against Candida albicans 2005E protein synthesis. It counts as functional, organism-based.

Regarding `CC(C)C1=CC2C[C@]3(C=O)C4CCC(C)C4C[C@]2(CO)[C@]13C(=O)O` (some centres not stated) [SORDARICIN], in the test with Candida albicans [1], the minimum inhibitory concentration (MIC) (as a rule, the least concentration at which growth counts as inhibited) was over 376 µM. Moreover, the IC50 (as a rule, the concentration that inhibits the measured activity by half) in the test with Candida albicans [2] was found to be 500 nM.
